Measurements as given in patent US8541584B2, “3-(1,2,3-triazol-4-yl) pyrrolo [2,3-b] pyridine derivatives” (Merck Patent GmbH, priority 2009, dated 2013).

What was measured:
PDK1 = target: T1, PDK1 (Homo sapiens, UniProt O15530); assay: Test for the inhibition of PDK1 (384-well flashplate, 33P-ATP); type: biochemical; conditions: His6-PDK1 3.4 nM, 4 μM ATP, 30° C., 60 min
T1 construct: His6 (N)
T1 sequence (O15530 51-556 limits assumed): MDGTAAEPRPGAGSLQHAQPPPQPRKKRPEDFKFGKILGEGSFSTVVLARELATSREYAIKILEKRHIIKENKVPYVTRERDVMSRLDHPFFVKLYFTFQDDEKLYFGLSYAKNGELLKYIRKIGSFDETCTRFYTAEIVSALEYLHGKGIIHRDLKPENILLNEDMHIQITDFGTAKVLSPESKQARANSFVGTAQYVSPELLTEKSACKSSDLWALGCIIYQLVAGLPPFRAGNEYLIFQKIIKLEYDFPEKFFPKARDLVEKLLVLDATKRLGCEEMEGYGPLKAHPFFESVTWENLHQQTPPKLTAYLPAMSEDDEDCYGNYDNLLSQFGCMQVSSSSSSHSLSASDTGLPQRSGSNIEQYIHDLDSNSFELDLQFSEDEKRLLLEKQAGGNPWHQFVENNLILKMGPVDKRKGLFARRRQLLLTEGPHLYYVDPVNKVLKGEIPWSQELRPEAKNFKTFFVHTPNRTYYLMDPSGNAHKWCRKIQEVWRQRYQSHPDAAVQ
Description: 4.0 Test for the Inhibition of PDK1
The experimental batches are carried out in a flashplate system with 384 wells/microtitration plate.
In each case, the PDK1 sample His6-PDK1(1-50)(3.4 nM), the PDK1 substrate biotin-bA-bA-[…] (400 nM), 4 μM ATP (with 0.2 μCi of ^33P-ATP/well) and the test substance in 50 μl of conventional experimental solution per well are incubated at 30° C. for 60 min. The test substances are employed in corresponding concentrations (if desired in a dilution series). The control is carried out without test substance. The reaction is stopped using standard methods and washed. The activity of the kinase is measured via the incorporated radioactivity in top count. In order to determine the non-specific kinase reaction (blank value), the experimental batches are carried out in the presence of 100 nM staurosporin.
The radioactivity (decompositions per minute) of the blank value (no use of test substance in the presence of staurosporin) is subtracted from all other radioactivity values. The controls (kinase activity without test substance) are set equal to 100 percent and all other radioactivity values (after subtracting the blank value) are expressed set in relation thereto (for example in % of the control).
IC50 values (50% inhibition) are determined with the aid of statistics programmes, such as, for example, RS1.

[1] = tested on: PDK1 kinase activity (P-T308-PKB) in PC3 cells; assay: Cellular testing of PDK1 kinase inhibitors (Luminex assay, P-T308-PKB in PC3 cells); type: cell-based; conditions: Homo sapiens, PC-3, 0.5 h, serum-free, 30 min with test substance
Description: Description of the Method for Cellular Testing of PDK1 Kinase Inhibitors
The cellular assay for determination of the PDK1 kinase activity is performed as Luminex assay in the 96-well format. PC3 cells are sown at 20,000 cells per well in 100 μl of medium (45% of […]/45% of Ham's F12/10% of FCS) and incubated under serum-free conditions on the following day for 30 min with serial dilution of the test substance (7 concentrations). The cells are subsequently lysed using 90 μl of lysis buffer (20 mM Tris/HCl pH 8.0, 150 mM NaCl, 1% of NP40, 10% of glycerol, 1% of phosphatase inhibitor I, 1% of phosphatase inhibitor II, 0.1% of protease inhibitor Cocktail III, 0.01% of benzonase) per well, and the lysates are separated off from insoluble cell constituents by means of centrifugation through a 96-well filter plate (0.65 μm). The lysates are incubated overnight at 4° C. with shaking with Luminex beads to which an anti-total PKB antibody has been coupled. Detection is carried out on the following day by addition of a P-T308-PKB antibody and a species-specific PE-labelled secondary antibody. The determination of P-T308-PKB is carried out by measurement in the Luminex100 instrument by determination of 100 events per cavity in a measurement time of 60 sec. As pharmacological blank, the signals obtained from cells which have been treated with 10 μM staurosporin are subtracted from all other batches. The control value used for maximum phosphorylation of PKB on T308 are the signals from cells which have been treated only with the solvent (0.3% of DMSO). The values of the batches treated with test substance are calculated from this as percent of control, and IC50 values are determined by means of RS1.

| Structure (SMILES) | IC50 (PDK1) | IC50 [1] |
| --- | --- | --- |
| Cn1cc(-c2cnc3[nH]cc(-c4cn(Cc5cccc(F)c5)nn4)c3c2)cn1 [Compound A5, 3-[1-(3-Fluorobenzyl)-1H-1,2,3-triazol-4-yl]-5-(1-methyl-1H-pyrazol-4-yl)-1H-pyrrolo-[2,3-b]pyridine] | 0.5 to 1000 nM | 1000 to 10000 nM |
| COc1cccc(Cn2cc(-c3c[nH]c4ncc(-c5cnn(C)c5)cc34)nn2)c1 [Compound A34, 3-[1-(3-Methoxybenzyl)-1H-1,2,3-triazol-4-yl]-5-(1-methyl-1H-pyrazol-4-yl)-1H-pyrrolo-[2,3-b]pyridine] | – | 1000 to 10000 nM |
| Cn1cc(-c2cnc3[nH]cc(-c4cn(Cc5ccncc5F)nn4)c3c2)cn1 [Compound A32, 3-[1-(3-Fluoropyridin-4-ylmethyl)-1H-1,2,3-triazol-4-yl]-5-(1-methyl-1H-pyrazol-4-yl)-1H-pyrrolo[2,3-b]pyridine] | – | 1000 to 10000 nM |
| Cn1cc(-c2cnc3[nH]cc(-c4cn(C(CC(=O)O)c5ccccc5)nn4)c3c2)cn1 (centres unmarked) [Compound A28, 3-{4-[5-(1-Methyl-1H-pyrazol-4-yl)-1H-pyrrolo[2,3-b]pyridin-3-yl]-1,2,3-triazol-1-yl}-3-phenylpropionic acid] | 0.5 to 1000 nM | – |
| Cn1cc(-c2cnc3[nH]cc(-c4cn(CC(O)c5ccccc5)nn4)c3c2)cn1 (centres unmarked) [Compound A31, 2-{4-[5-(1-Methyl-1H-pyrazol-4-yl)-1H-pyrrolo[2,3-b]pyridin-3-yl]-1,2,3-triazol-1-yl}-1-phenylethanol] | 0.5 to 1000 nM | 1000 to 10000 nM |
| Cn1cc(-c2cnc3[nH]cc(-c4cn(Cc5ccc(C(F)(F)F)cc5F)nn4)c3c2)cn1 [Compound A26, 3-[1-(2-Fluoro-4-trifluoromethylbenzyl)-1H-1,2,3-triazol-4-yl]-5-(1-methyl-1H-pyrazol-4-yl)-1H-pyrrolo[2,3-b]pyridine] | 0.5 to 1000 nM | 1000 to 10000 nM |
| Cn1cc(-c2cnc3[nH]cc(-c4cn(Cc5c(F)cccc5C(F)(F)F)nn4)c3c2)cn1 [Compound A24, 3-[1-(2-Fluoro-6-trifluoromethylbenzyl)-1H-1,2,3-triazol-4-yl]-5-(1-methyl-1H-pyrazol-4-yl)-1H-pyrrolo[2,3-b]pyridine] | 0.5 to 1000 nM | 1000 to 10000 nM |
| CC(c1ccc(CO)cc1)n1cc(-c2c[nH]c3ncc(-c4cnn(C)c4)cc23)nn1 (centres unmarked) [Compound A30, [4-(1-{4-[5-(1-Methyl-1H-pyrazol-4-yl)-1H-pyrrolo[2,3-b]pyridin-3-yl]-1,2,3-triazol-1-yl}-ethyl)phenyl]methanol] | 0.5 to 1000 nM | 1000 to 10000 nM |
| CC(c1ccc(C(=O)O)cc1)n1cc(-c2c[nH]c3ncc(-c4cnn(C)c4)cc23)nn1 (centres unmarked) [Compound A27, 4-(1-{4-[5-(1-Methyl-1H-pyrazol-4-yl)-1H-pyrrolo[2,3-b]pyridin-3-yl]-1,2,3-triazol-1-yl}-ethyl)benzoic acid] | 0.5 to 1000 nM | – |
| Cn1cc(-c2cnc3[nH]cc(-c4cn(Cc5cccc(OC(F)F)c5)nn4)c3c2)cn1 [Compound A39, 3-[1-(3-Difluoromethoxybenzyl)-1H-1,2,3-triazol-4-yl]-5-(1-methyl-1H-pyrazol-4-yl)-1H-pyrrolo[2,3-b]pyridine] | – | 1000 to 10000 nM |
| Cn1cc(-c2cnc3[nH]cc(-c4cn(Cc5cccc(Cl)c5F)nn4)c3c2)cn1 [Compound A23, 3-[1-(3-Chloro-2-fluorobenzyl)-1H-1,2,3-triazol-4-yl]-5-(1-methyl-1H-pyrazol-4-yl)-1H-pyrrolo[2,3-b]pyridine] | 0.5 to 1000 nM | 0.5 to 1000 nM |
| c1ccc(Cn2cc(-c3c[nH]c4ncccc34)nn2)cc1 [Compound A1, 3-(1-benzyl-1H-1,2,3-triazol-4-yl)-1H-pyrrolo[2,3-b]pyridine] | 0.5 to 1000 nM | – |
| Cc1[nH]c2ncccc2c1-c1cn(Cc2ccccc2)nn1 [Compound A3, 3-(1-Benzyl-1H-1,2,3-triazol-4-yl)-2-methyl-1H-pyrrolo[2,3-b]pyridine] | 0.5 to 1000 nM | – |
| COC(=O)c1cccc(Cn2cc(-c3c[nH]c4ncc(-c5cnn(C)c5)cc34)nn2)c1 [Compound A37, Methyl 3-{4-[5-(1-methyl-1H-pyrazol-4-yl)-1H-pyrrolo[2,3-b]pyridin-3-yl]-1,2,3-triazol-1-ylmethyl}benzoate] | – | 1000 to 10000 nM |
| Clc1ccc(Cn2cc(-c3c[nH]c4ncccc34)nn2)cc1 [Compound A2, 3-[1-(4-chlorobenzyl)-1H-1,2,3-triazol-4-yl]-1H-pyrrolo[2,3-b]-pyridine] | 1000 to 10000 nM | – |
| Cn1cc(-c2cnc3[nH]cc(-c4cn(Cc5ccc(F)cc5F)nn4)c3c2)cn1 [Compound A21, 3-[1-(2,4-Difluorobenzyl)-1H-1,2,3-triazol-4-yl]-5-(1-methyl-1H-pyrazol-4-yl)-1H-pyrrolo-[2,3-b]pyridine] | 0.5 to 1000 nM | 1000 to 10000 nM |
| COc1ccnc2[nH]cc(-c3cn(Cc4ccccc4)nn3)c12 [Compound A15, 3-(1-benzyl-1H-1,2,3-triazol-4-yl)-4-methoxy-1H-pyrrolo[2,3-b]-pyridine] | 0.5 to 1000 nM | – |
| Cn1cc(-c2cnc3[nH]cc(-c4cn(Cc5cccc(C(F)(F)F)c5F)nn4)c3c2)cn1 [Compound A22, 3-[1-(2-Fluoro-3-trifluoromethylbenzyl)-1H-1,2,3-triazol-4-yl]-5-(1-methyl-1H-pyrazol-4-yl)-1H-pyrrolo[2,3-b]pyridine] | 0.5 to 1000 nM | 1000 to 10000 nM |
| CC(c1cccc(C(F)(F)F)c1)n1cc(-c2c[nH]c3ncc(-c4cnn(C)c4)cc23)nn1 (centres unmarked) [Compound A19, 5-(1-Methyl-1H-pyrazol-4-yl)-3-{1-[1-(3-trifluoromethylphenyl)ethyl]-1H-1,2,3-triazol-4-yl}-1H-pyrrolo[2,3-b]pyridine] | 0.5 to 1000 nM | 1000 to 10000 nM |
| CC(c1ccccc1)n1cc(-c2c[nH]c3ncc(-c4cnn(C)c4)cc23)nn1 (centres unmarked) [Compound A8, 5-(1-methyl-1H-pyrazol-4-yl)-3-[1-(1-phenylethyl)-1H-1,2,3-triazol-4-yl]-1H-pyrrolo[2,3-b]pyridine] | 0.5 to 1000 nM | 1000 to 10000 nM |
| Cn1cc(-c2cnc3[nH]cc(-c4cn(Cc5ccccc5C#N)nn4)c3c2)cn1 [Compound A38, 2-{4-[5-(1-Methyl-1H-pyrazol-4-yl)-1H-pyrrolo[2,3-b]pyridin-3-yl]-1,2,3-triazol-1-yl-methyl}benzonitrile] | – | 0.5 to 1000 nM |
| Cn1cc(-c2cnc3[nH]cc(-c4cn(Cc5ccc(F)cc5)nn4)c3c2)cn1 [Compound A6, 3-[1-(4-Fluorobenzyl)-1H-1,2,3-triazol-4-yl]-5-(1-methyl-1H-pyrazol-4-yl)-1H-pyrrolo-[2,3-b]pyridine] | 0.5 to 1000 nM | 1000 to 10000 nM |
| Cn1cc(-c2cnc3[nH]cc(-c4cn(Cc5ccc(OC(F)F)cc5)nn4)c3c2)cn1 [Compound A36, 3-[1-(4-Difluoromethoxybenzyl)-1H-1,2,3-triazol-4-yl]-5-(1-methyl-1H-pyrazol-4-yl)-1H-pyrrolo[2,3-b]pyridine] | – | 1000 to 10000 nM |
| Cn1cc(-c2cnc3[nH]cc(-c4cn(Cc5ccccc5CO)nn4)c3c2)cn1 [Compound A35, (2-{4-[5-(1-Methyl-1H-pyrazol-4-yl)-1H-pyrrolo[2,3-b]pyridin-3-yl]-1,2,3-triazol-1-ylmethyl}phenyl)methanol] | – | 1000 to 10000 nM |
